Measurements from patent US9758491B2, “Molecules having pesticidal utility, and intermediates, compositions, and processes, related thereto” (priority 2015, dated 2017).

Experiments:
Assay type in all cases: in vivo
[1] = test system: Beet Armyworm (Spodoptera exigua, LAPHEG); assay: Bioassay on Beet Armyworm (BAW), 128-well diet tray assay; conditions: 168 h, 50 μg/cm^2 on artificial diet, second instar larvae, 25° C., five to seven days, average of eight wells, read-out: BAW rating, % Control (or Mortality)
Method: (§1) Certain molecules disclosed in this document were tested against BAW and CL using procedures described in the following examples. In the reporting of the results, the “BAW & CL Rating Table” was used (See Table Section).
Bioassays on BAW were conducted using a 128-well diet tray assay. One to five second instar BAW larvae were placed in each well (3 mL) of the diet tray that had been previously filled with 1 mL of artificial diet to which 50 μg/cm^2 of the test molecule (dissolved in 50 μL of 90:10 acetone-water mixture) had been applied (to each of eight wells) and then allowed to dry. Trays were covered with a clear self-adhesive cover, vented to allow gas exchange, and held at 25° C., 14:10 light-dark for five to seven days. Percent mortality was recorded for the larvae in each well; activity in the eight wells was then averaged. The results are indicated in the table entitled “Table ABC: Biological Results” (See Table Section).

[2] = test system: Cabbage Looper (Trichoplusia ni, TRIPNI); assay: Bioassay on Cabbage Looper (CL), 128-well diet tray assay; conditions: 168 h, 50 μg/cm^2 on artificial diet, second instar larvae, 25° C., five to seven days, average of eight wells, read-out: CL rating, % Control (or Mortality)
Method: as §1
Bioassays on CL were conducted using a 128-well diet tray assay. One to five second instar CL larvae were placed in each well (3 mL) of the diet tray that had been previously filled with 1 mL of artificial diet to which 50 μg/cm^2 of the test molecule (dissolved in 50 μL of 90:10 acetone-water mixture) had been applied (to each of eight wells) and then allowed to dry. Trays were covered with a clear self-adhesive cover, vented to allow gas exchange, and held at 25° C., 14:10 light-dark for five to seven days. Percent mortality was recorded for the larvae in each well; activity in the eight wells was then averaged. The results are indicated in the table entitled “Table ABC: Biological Results” (See Table Section).

[3] = test system: Yellow Fever Mosquito (Aedes aegypti, AEDSAE); assay: Bioassay on Yellow Fever Mosquito (YFM) larvae, 96-well plate; conditions: 4000 ppm DMSO master solution diluted, about 1 day-old larvae, room temperature, scored after 3 days
Method: Certain molecules disclosed in this document were tested against YFM using procedures described in the following paragraph. In the reporting of the results, the “YFM Rating Table” was used (See Table Section).
Master plates containing 400 μg of a molecule dissolved in 100 μL of dimethyl sulfoxide (DMSO) (equivalent to a 4000 ppm solution) are used. A master plate of assembled molecules contains 15 μL per well. To this plate, 135 μL of a 90:10 water/acetone mixture is added to each well. A robot (Biomek® NXP Laboratory Automation Workstation) is programmed to dispense 15 μL aspirations from the master plate into an empty 96-well shallow plate (“daughter” plate). There are 6 reps (“daughter” plates) created per master. The created “daughter” plates are then immediately infested with YFM larvae.
The day before plates are to be treated, mosquito eggs are placed in Millipore water containing liver powder to begin hatching (4 g into 400 mL). After the “daughter” plates are created using the robot, they are infested with 220 μL of the liver powder/larval mosquito mixture (about 1 day-old larvae). After plates are infested with mosquito larvae, a non-evaporative lid is used to cover the plate to reduce drying. Plates are held at room temperature for 3 days prior to grading. After 3 days, each well is observed and scored based on mortality. The results are indicated in the table entitled “Table ABC: Biological Results” (See Table Section).

Cc1ccc(N/C(N)=N/C(=O)Nc2ccc(-c3ncn(-c4ccc(OC(F)(F)F)cc4)n3)cc2)c(C)c1 [F8, (1E)-1-[Amino-(2,4-dimethylanilino)methylene]-3-[4-[1-[4-(trifluoromethoxy)phenyl]-1H-1,2,4-triazol-3-yl]phenyl]urea] was tested, and the mortality at 50 µg/cm2 [1] was 50 to 100%, the mortality at 50 µg/cm2 [2] was 50 to 100% and the “YFM rating, % Control (or Mortality)” value [3] was “A (80-100)”.

In the case of Cc1ccc(N2CCN/C2=N\C(=O)Nc2ccc(-c3ncn(-c4ccc(OC(F)(F)F)cc4)n3)cc2)c(C)c1 [F15, (E)-1-(1-(2.4-dimethylphenyl)imidazolidin-2-ylidene)-3-(4-(1-(4-(trifluoromethoxy)phenyl)-1H-1,2,4-triazol-3-yl)phenyl)urea], the mortality at 50 µg/cm2 [1] is reported as 50 to 100%, the mortality at 50 µg/cm2 [2] is reported as 50 to 100% and the “YFM rating, % Control (or Mortality)” value [3] is reported as “A (80-100)”.

In the case of CCc1ccccc1N/C(N)=N/C(=O)Nc1ccc(-c2ncn(-c3ccc(OC(F)(F)F)cc3)n2)cc1 [F3, (1E)-1-[Amino-(2-ethylanilino)methylene]-3-[4-[1-[4-(trifluoromethoxy)phenyl]-1H-1,2,4-triazol-3-yl]phenyl]urea], the mortality at 50 µg/cm2 [1] is reported as 50 to 100%, the mortality at 50 µg/cm2 [2] is reported as 50 to 100% and the “YFM rating, % Control (or Mortality)” value [3] is reported as “A (80-100)”.

Cc1cccc(C)c1N/C(N)=N/C(=O)Nc1ccc(-c2ncn(-c3ccc(OC(F)(F)F)cc3)n2)cc1 [F11, (1E)-1-[amino-(2,6-dimethylanilino)methylene]-3-[4-[1-[4-(trifluoromethoxy)phenyl]-1H-1,2,4-triazol-3-yl]phenyl]urea] was tested, and the mortality at 50 µg/cm2 [1] was 50 to 100%.

In the case of CC(C)c1ccccc1N/C(N)=N/C(=O)Nc1ccc(-c2ncn(-c3ccc(OC(F)(F)F)cc3)n2)cc1 [F10, (1E)-1-[Amino-(2-isopropylanilino)methylene]-3-[4-[1-[4-(trifluoromethoxy)phenyl]-1H-1,2,4-triazol-3-yl]phenyl]urea], the mortality at 50 µg/cm2 [1] is reported as 50 to 100%, the mortality at 50 µg/cm2 [2] is reported as 50 to 100% and the “YFM rating, % Control (or Mortality)” value [3] is reported as “A (80-100)”.

In the case of N/C(=N\C(=O)Nc1ccc(-c2ncn(-c3ccc(OC(F)(F)F)cc3)n2)cc1)Nc1ccccc1Cc1ccccc1 [F2, (1E)-1-[Amino-(2-benzylanilino)methylene]-3-[4-[1-[4-(trifluoromethoxy)phenyl]-1H-1,2,4-triazol-3-yl]phenyl]urea], the mortality at 50 µg/cm2 [1] is reported as 50 to 100%, the mortality at 50 µg/cm2 [2] is reported as 50 to 100% and the “YFM rating, % Control (or Mortality)” value [3] is reported as “A (80-100)”.

In the case of Cc1cc(Cl)ccc1N1CCN/C1=N\C(=O)Nc1ccc(-c2ncn(-c3ccc(OC(F)(F)F)cc3)n2)cc1 [F12, (E)-1-(1-(4-Chloro-2-methylphenyl)imidazolidin-2-ylidene)-3-(4-(1-(4-(trifluoromethoxy)phenyl)-1H-1,2,4-triazol-3-yl)phenyl)urea], the mortality at 50 µg/cm2 [1] is reported as 0 to 50%, the mortality at 50 µg/cm2 [2] is reported as 50 to 100% and the “YFM rating, % Control (or Mortality)” value [3] is reported as “D (No activity noticed in this bioassay)”.

For COc1ccccc1N1CCN/C1=N\C(=O)Nc1ccc(-c2ncn(-c3ccc(OC(F)(F)F)cc3)n2)cc1 [F18, (E)-1-(1-(2-Methoxyphenyl)imidazolidin-2-ylidene)-3-(4-(1-(4-(trifluoromethoxy)phenyl)-1H-1,2,4-triazol-3-yl)phenyl)urea], the mortality at 50 µg/cm2 [1] was 50 to 100%, the mortality at 50 µg/cm2 [2] was 50 to 100% and the “YFM rating, % Control (or Mortality)” value [3] was “A (80-100)”.

O=C(/N=C1\NCCN1c1ccccc1)Nc1ccc(-c2ncn(-c3ccc(OC(F)(F)F)cc3)n2)cc1 [F16, (E)-1-(1-Phenylimidazolidin-2-ylidene)-3-(4-(1-(4-(trifluoromethoxy)phenyl)-1H-1,2,4-triazol-3-yl)phenyl)urea] was tested, and the mortality at 50 µg/cm2 [1] was 50 to 100%, the mortality at 50 µg/cm2 [2] was 50 to 100% and the “YFM rating, % Control (or Mortality)” value [3] was “A (80-100)”.

For O=C(/N=C1\NCCN1c1ccccc1OC(F)(F)F)Nc1ccc(-c2ncn(-c3ccc(OC(F)(F)F)cc3)n2)cc1 [F19, (E)-1-(4-(1-(4-(Trifluoromethoxy)phenyl)-1H-1,2,4-triazol-3-yl)phenyl)-3-(1-(2-(trifluoromethoxy)phenyl)imidazolidin-2-ylidene)urea], the mortality at 50 µg/cm2 [1] was 0 to 50%, the mortality at 50 µg/cm2 [2] was 50 to 100% and the “YFM rating, % Control (or Mortality)” value [3] was “D (No activity noticed in this bioassay)”.

In the case of Cc1ccccc1N/C(N)=N/C(=O)Nc1ccc(-c2ncn(-c3ccc(OC(F)(F)F)cc3)n2)cc1 [F5, (1E)-1-[Amino-(2-methylanilino)methylene]-3-[4-[1-[4-(trifluoromethoxy)phenyl]-1H-1,2,4-triazol-3-yl]phenyl]urea], the mortality at 50 µg/cm2 [1] is reported as 50 to 100%, the mortality at 50 µg/cm2 [2] is reported as 50 to 100% and the “YFM rating, % Control (or Mortality)” value [3] is reported as “A (80-100)”.

With N/C(=N\C(=O)Nc1ccc(-c2ncn(-c3ccc(OC(F)(F)F)cc3)n2)cc1)Nc1ccccc1-c1ccccc1 [F1, (1E)-1-[Amino-(2-phenylanilino)methylene]-3-[4-[1-[4-(trifluoromethoxy)phenyl]-1H-1,2,4-triazol-3-yl]phenyl]urea] the mortality at 50 µg/cm2 [1] was 50 to 100%, the mortality at 50 µg/cm2 [2] was 50 to 100% and the “YFM rating, % Control (or Mortality)” value [3] was “A (80-100)”.

For COc1cccc(N2CCN/C2=N\C(=O)Nc2ccc(-c3ncn(-c4ccc(OC(F)(F)F)cc4)n3)cc2)c1 [F20, (E)-1-(1-(3-Methoxyphenyl)imidazolidin-2-ylidene)-3-(4-(1-(4-(trifluoromethoxy)phenyl)-1H-1,2,4-triazol-3-yl)phenyl)urea], the mortality at 50 µg/cm2 [1] was 50 to 100%, the mortality at 50 µg/cm2 [2] was 50 to 100% and the “YFM rating, % Control (or Mortality)” value [3] was “A (80-100)”.

In the case of COc1ccc(N2CCN/C2=N\C(=O)Nc2ccc(-c3ncn(-c4ccc(OC(F)(F)F)cc4)n3)cc2)cc1 [F21, (E)-1-(1-(4-Methoxyphenyl)imidazolidin-2-ylidene)-3-(4-(1-(4-(trifluoromethoxy)phenyl)-1H-1,2,4-triazol-3-yl)phenyl)urea], the mortality at 50 µg/cm2 [1] is reported as 50 to 100%, the mortality at 50 µg/cm2 [2] is reported as 50 to 100% and the “YFM rating, % Control (or Mortality)” value [3] is reported as “A (80-100)”.

COc1ccc(N/C(N)=N/C(=O)Nc2ccc(-c3ncn(-c4ccc(OC(F)(F)F)cc4)n3)cc2)c(C)c1 [F9, (1E)-1-[Amino-(4-methoxy-2-methyl-anilino)methylene]-3-[4-[1-[4-(trifluoromethoxy)phenyl]-1H-1,2,4-triazol-3-yl]phenyl]urea] was tested, and the mortality at 50 µg/cm2 [1] was 50 to 100%, the mortality at 50 µg/cm2 [2] was 50 to 100% and the “YFM rating, % Control (or Mortality)” value [3] was “A (80-100)”.

For Cc1ccc(C)c(N/C(N)=N/C(=O)Nc2ccc(-c3ncn(-c4ccc(OC(F)(F)F)cc4)n3)cc2)c1 [F7, (1E)-1-[Amino-(2,5-dimethylanilino)methylene]-3-[4-[1-[4-(trifluoromethoxy)phenyl]-1H-1,2,4-triazol-3-yl]phenyl]urea], the mortality at 50 µg/cm2 [1] was 50 to 100%, the mortality at 50 µg/cm2 [2] was 50 to 100% and the “YFM rating, % Control (or Mortality)” value [3] was “A (80-100)”.

N/C(=N\C(=O)Nc1ccc(-c2ncn(-c3ccc(OC(F)(F)F)cc3)n2)cc1)Nc1ccccc1 [F4, (1E)-1-[amino(anilino)methylene]-3-[4-[1-[4-(trifluoromethoxy)phenyl]-1H-1,2,4-triazol-3-yl]phenyl]urea] was tested, and the mortality at 50 µg/cm2 [1] was 50 to 100%, the mortality at 50 µg/cm2 [2] was 50 to 100% and the “YFM rating, % Control (or Mortality)” value [3] was “A (80-100)”.

For CCc1ccccc1N1CCN/C1=N\C(=O)Nc1ccc(-c2ncn(-c3ccc(OC(F)(F)F)cc3)n2)cc1 [F14, (E)-1-(1-(2-Ethylphenyl)imidazolidin-2-ylidene)-3-(4-(1-(4-(trifluoromethoxy)phenyl)-1H-1,2,4-triazol-3-yl)phenyl)urea], the mortality at 50 µg/cm2 [1] was 50 to 100%, the mortality at 50 µg/cm2 [2] was 50 to 100% and the “YFM rating, % Control (or Mortality)” value [3] was “A (80-100)”.

For CCCc1ccccc1N/C(N)=N/C(=O)Nc1ccc(-c2ncn(-c3ccc(OC(F)(F)F)cc3)n2)cc1 [F6, (1E)-1-[Amino-(2-propylanilino)methylene]-3-[4-[1-[4-(trifluoromethoxy)phenyl]-1H-1,2,4-triazol-3-yl]phenyl]urea], the mortality at 50 µg/cm2 [1] was 50 to 100%, the mortality at 50 µg/cm2 [2] was 50 to 100% and the “YFM rating, % Control (or Mortality)” value [3] was “A (80-100)”.
